Data set [1] has as its target T1, eeAChE (electric eel AChE) (Electrophorus electricus, UniProt O42275).
T1 construct: purchased Sigma-Aldrich Co; host or cells: electric eel (natural source)
Kind of data set: biochemical. The following applies: for inhibition at 25 µM: read-out: Inhibition percent rate eeAChE. The method, then:
(§1) 2.1 Inhibition experiments of AChE and BuChE. The modified Ellman method was
(§2) performed to test the AChE and BChE inhibitory ability of the compounds, using
(§3) eeAChE and eqBChE (Sigma-Aldrich Co.). […]

Data set [2] deals with T2, eqBuChE (equine serum BuChE) (Equus caballus, UniProt P81908).
T2 construct: purchased Sigma-Aldrich Co; host or cells: equine serum (natural source)
Kind of data set: biochemical. The following applies: for inhibition at 25 µM: read-out: Inhibition percent rate eqBuChE; for SI: SI = IC50 (AChE)/IC50 (BuChE). The method, then:
as §1, §2, §3

The target of data set [3] is T3, eqBuChE (Equus caballus, UniProt P81908).
T3 construct: purchased Sigma-Aldrich Co; host or cells: equine serum (natural source)
It is filed as biochemical, equine. An excerpt:
Further, the recovery capability of BuChE inhibitory effect after dilution was monitored by time.
Figure 2.

Data set [4] deals with BV-2 cells. The data set can be described thus: Cytotoxicity on BV-2 cells, CCK-8 assay. It is filed as cell-based. The following applies: at 10 μM. As to the method: 5a was chosen to evaluate the anti-inflammation property through testing the production of IL-1β, IL-6, and NO in LPS-induced BV-2 cells[25]^,[26]. First of all, the cytotoxicity of 5a was determined through the CCK-8 assay.
2.1 Inhibition experiments of AChE and BuChE. The modified Ellman method was performed to test the AChE and BChE inhibitory ability of the compounds, using eeAChE and eqBChE (Sigma-Aldrich Co.). The detailed procedure referenced our […]
2.2 Anti-inflammatory property. BV-2 cells were cultured in DMEM containing 10% fetal bovine serum, 100 U/mL penicillin, 100 U/mL streptomycin, and 1% nonessential amino acid at 37℃ with 5% CO2.
BV-2 cells in logarithmic growth stage were digested and centrifuged, and then resuspended in DMEM medium containing 1% penicillin-streptomycin and 10% fetal bovine serum. The cells was adjusted to 1.2 × 10^4 cells/well, and then seeded evenly in 96-well cell culture plates. The cells were incubated for 36 h at 37℃ with 5% CO2. […]
BV-2 cells (2 × 10^5 cells/well) were seeded in a 24-well cell culture plates. […] The content of NO in cell culture supernatant was determined by Griess method, and the levels of cytokines IL-6 and IL-1β in cell culture supernatant were determined by IL-6 ELISA kit and IL-1β ELISA kit, respectively.
(Tetrazolium dyes change colour on reduction, which living cells bring about.)

The subject of data set [5] is IL-6 production in LPS-stimulated BV-2 cells. The data set can be described thus: IL-6 production in LPS-stimulated BV-2 cells (ELISA). It is filed as cell-based. The following applies: LPS 1 μg/mL.
Data set [6] has as its system IL-1β production in LPS-stimulated BV-2 cells. The data set can be described thus: IL-1β production in LPS-stimulated BV-2 cells (ELISA). It is filed as cell-based.
Data set [7] has as its system NO release in LPS-stimulated BV-2 cells. The data set can be described thus: NO release in LPS-stimulated BV-2 cells (Griess method). It is filed as cell-based. The following applies: 1, 3, and 9 μM; LPS 1 μg/mL (model 31.9 μM). On the technique in general: The Griess reaction detects nitrite, a stable product of nitric oxide.
In data set [8] the test system is PC12 cells. The data set can be described thus: Cytotoxicity on PC12 cells, CCK-8 assay. The following applies: at 30 μM. It is filed as cell-based.
From the text: (§4) 2.3 Neuroprotective effects on Aβ25-35-induced PC12 cells injury.
(§5) (1) Materials and reagents. PC12 cell (Purchased from the Cell Bank of Shanghai
(§6) Institute of Cell Biology, Chinese Academy of Sciences),
(§7) DME H-21 4.5g/Liter Glucose(Gibco), Fetal bovine serum (Vicente),
(§8) cellcountingkit-8, CCK8(Shanghai Biyuntian Biotechnology Co. , Ltd), 1%
(§9) penicillin-streptomycin (Double antibody, cellmax), Double antibody (Beijing
(§10) Co., Ltd), a phosphate -buffered solution , (PBS, Beijing Solebao Technology Co., Ltd),
(§11) (2) Istrument. Cell culture incubator(Thermo Scientific), Ultra-clean
(§12) workbench(Jiangsu Sujing Group Co., Ltd), Inverted phase-contrast fluorescence
(§13) microscope(Japan Nikon Corporation), Varioska full-wavelength multifunction
(§14) microplate reader(Thermo Scientific), Digital display constant temperature water bath
(§15) pot(Bangsi Instrument Technology Co., Ltd), 1/100,000 electronic balance(Shanghai
Jinghai Instrument Co., Ltd).
(§16) In this experiment, the cell viability was detected using CCK-8 kit and
(§17) (3) PC12 Cell complete medium formulation. Recover PC12 cells, use 10% fetal
(§18) bovine serum 50mL, 5% equine serum 25mL and 1% penicillin mixture 5mL, and
(§19) finally add DMEM high-sugar medium solution to 500mL, that is, to obtain.
(§20) (4) PC12 Cell Recover. Quickly remove the cells from the -80 °C freezer, shake
in a 37 °C water bath pot to dissolve quickly, disinfect the cryopreservation tube and […]
Data set [9] in a line: Stability in artificial gastrointestinal fluids. The following applies: 37 °C. It is filed as in vitro ADME. As to the method:
Based on the above data, 5a was chosen to evaluate the stabilities by artificial gastrointestinal solution, blood plasma, and rat liver microsomes.
Cell viability(%) = (Asample-Ablank)/(Acontrol-Ablank) ×100%. Asample, Ablank and Acontrol
medium, or vehicle, respectively.
method described in China Pharmacopoeia (version 2015). The artificial gastric fluid
described above without pepsin and trypsin. Compound 5a (1 mg/mL, n = 3) was
Supernatant was collected by
were processed by GraphPad Prism 8.0 software.
Solution B (25 mL) contained

Data set [10] can be described thus: Rat liver microsomes stability. It is filed as in vitro ADME. The following applies: n = 3, read-out: t1/2 in rat liver microsomes. On the technique in general: Liver microsomes are a subcellular fraction often used to study metabolism.
Method: microsomes was purchased from Dalian Meilun Biotechnology Co., Ltd, DaLian,
China. Briefly, solution A (10 mL) contained G-6-P-Na2 (200 mg), NADPNa2 (200
G-6-P-DH (1000 U), Na-Citrate2 (200 mg), and H2O was used as a solvent. NADPH
solution (1 mM) was composed by solution A and solution B (v/v = 5:1). Compound
was dissolved in DMSO to obtain 1 mg/mL stock solution. Rat liver microsomes was
added to compound solution (the final concentration of compound and rat liver
microsomes was 10 μg/mL and 0.5 mg/mL, respectively) (n = 3). The reaction was
started by the addition of NADPH. The total mixture (200 μL) was incubated at 37 °C.
Cold methanol (600 μL) was added at 0, 5, 15, 20, 30, 45 and 60 min , respectively, to
stop the reaction. Samples were centrifuged at 13000 rpm fo r 10 min at 4 °C, and 100
μL supernatant was removed and analyzed by UPLC-MS/MS. The stability results
were presented as % remaining vs. time.
Data set [11] in a line: Plasma stability. It is filed as in vitro ADME. The following applies: rat, n = 3, read-out: t1/2 in blood plasma (converted).
Method: (3) The stability of compound was performed in rat plasma.
mg/mL) were dissolved in DMSO, and the reaction (10 μg/mL, n = 3) was prepared
by mixing 198 μL plasma with 2 μL compounds solution, then incubated in 37 ◦C and
stopped by adding 600 μL methanol at time of 0, 0.5, 1, 1.5, 2 and 3 h, followed by
centrifugation at 13,000 rpm for 10 min at 4 °C. The supernatant was dried and
redissolved in 100 μL methanol. After centrifugation, the supernatant was analyzed
by UPLC-MS/MS. The stability data was presented as remaining percentage vs time.
Data set [12] relates to scopolamine-induced cognitive dysfunction in mice. Kind of data set: Step-down passive avoidance task, scopolamine-induced cognitive dysfunction. It is filed as in vivo. As to the method:
The in vivo effects of 5a were determined through the step-down passive avoidance task. […]. page 9: […]
Assay method. The step-down passive avoidance task was employed to investigate
the effects of 5a on scopolamine-induced memory impairment.21,22 Sixty mice were
random divide into six groups. […]

For data set [13], the system named is Aβ25-35-induced PC12 cell injury. Kind of data set: cells. The following applies: Rattus norvegicus, PC-12, read-out: PC12 cells viability.
From the text: as §4, §5, §6, §7, §8, §9, §10, §11, §12, §13, §14, §15
Jinghai Instrument Co., Ltd).
as §16, §17, §18, §19, §20
in a 37 °C water bath pot to dissolve quickly, disinfect the cryopreservation tube and
transfer it to the ultra-clean table, transfer the cryopreservation in the cryopreservation
tube to a 15 mL centrifuge tube, add 3 mL of complete medium, gently blow well
with a pipette, centrifuge at 1000 *g at room temperature for 5 min, discard the upper
layer of medium, add 4 mL complete medium again, gently blow well and transfer to
the culture flask, transfer to the incubator at 37 °C, 5% CO2, saturation humidity, and
change the liquid every other day.
(5) PC12 Cell Passage. During the logarithmic growth phase of cell growth, add
complete medium to stop digestion, transfer to a 15 mL centrifuge tube, centrifuge at
1000 *g at room temperature for 5 min, discard the upper layer medium, 1:4
(7) Preparation of sample solutions. […]
Data set [14] deals with Kunming mice. The data set can be described thus: Acute toxicity (safety profile) in mice. The following applies: 500 mg/kg, intragastric administration.
Method: gender) were supplied by the Center of Experimental Animals of Sichuan Academy of
Chinese Medicine Sciences (eligibility certiﬁcation no. SCXK-Chuan2018-19). Mice
20−22 °C with a relative humidity of 60−70%. Sterile food and water were provided
according to institutional guidelines. Prior to each experiment, mice were fasted
overnight and allowed free access to water.
1000 mg/kg (n = 6 per group) by intragastric administration. After the administration
occasionally thereafter for 14 days for the onset of any delayed effects. All animals
were sacrificed on the 14th day after drug administration and were macroscopically
Data set [15] addresses cholinesterase. More on the design: method as in PMID 11429429. The following applies: read-out: IC50 anticholinesterase activity; cited from earlier work.
Where [16] appears, read: mean ± SD, read-out: IC50 ± SD eeAChE.
Where [17] appears, read: mean ± SD, read-out: IC50 ± SD eqBuChE.

Where “and” joins values, the source holds several entries; their conditions need not be identical. Equal values may be shown once. Read-outs that look alike come from different tables or passages of the source.

T1 sequence (O42275 24-633): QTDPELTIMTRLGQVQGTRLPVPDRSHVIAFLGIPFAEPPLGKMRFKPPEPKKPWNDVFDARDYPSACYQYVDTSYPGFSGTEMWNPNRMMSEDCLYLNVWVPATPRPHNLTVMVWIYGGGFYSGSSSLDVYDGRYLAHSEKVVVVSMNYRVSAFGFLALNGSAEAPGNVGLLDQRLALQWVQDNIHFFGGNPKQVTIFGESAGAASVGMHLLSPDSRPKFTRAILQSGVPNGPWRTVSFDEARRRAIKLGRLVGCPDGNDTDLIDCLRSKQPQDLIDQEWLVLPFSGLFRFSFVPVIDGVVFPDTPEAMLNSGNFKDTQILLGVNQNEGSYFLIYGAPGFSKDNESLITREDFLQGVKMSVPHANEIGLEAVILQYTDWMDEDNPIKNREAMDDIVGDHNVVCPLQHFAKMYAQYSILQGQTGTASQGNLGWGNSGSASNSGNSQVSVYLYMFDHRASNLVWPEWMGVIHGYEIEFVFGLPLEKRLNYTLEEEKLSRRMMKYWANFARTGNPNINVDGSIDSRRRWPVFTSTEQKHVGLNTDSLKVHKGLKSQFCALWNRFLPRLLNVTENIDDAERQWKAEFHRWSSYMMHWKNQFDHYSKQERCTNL
T2 sequence (P81908 whole entry): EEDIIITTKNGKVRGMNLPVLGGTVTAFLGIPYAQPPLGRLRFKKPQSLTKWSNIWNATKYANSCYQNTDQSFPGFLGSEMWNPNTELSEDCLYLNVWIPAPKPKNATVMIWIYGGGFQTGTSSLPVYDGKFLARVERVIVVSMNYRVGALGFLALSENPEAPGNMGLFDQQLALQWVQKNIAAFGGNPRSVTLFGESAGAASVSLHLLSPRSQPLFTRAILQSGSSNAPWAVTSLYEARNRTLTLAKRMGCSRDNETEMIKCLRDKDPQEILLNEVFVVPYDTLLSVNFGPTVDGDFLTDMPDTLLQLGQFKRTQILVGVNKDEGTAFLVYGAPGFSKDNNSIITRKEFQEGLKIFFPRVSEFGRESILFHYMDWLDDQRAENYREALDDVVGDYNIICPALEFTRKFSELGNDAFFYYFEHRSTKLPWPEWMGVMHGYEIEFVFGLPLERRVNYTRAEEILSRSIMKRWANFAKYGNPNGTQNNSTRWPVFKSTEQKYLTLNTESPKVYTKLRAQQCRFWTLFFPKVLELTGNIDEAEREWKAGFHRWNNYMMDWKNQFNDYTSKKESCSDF
T3 sequence (P81908 whole entry): as above

For `O=C(O)c1ccc(O)cc1O` [Compound 1a, 2,4-dihydroxybenzoic acid], the figures for the inhibition at 25 µM in data set [1] and in [2] were 16.3 ± 0.17% and 25.8 ± 0.93%, respectively.
The like results for `O=C(O)c1cc(O)ccc1O` [Compound 1b, 2,5-dihydroxybenzoic acid] were, in that order, 20.6 ± 1.2% and 18.2 ± 0.67%.
As to `CN(C)C(=O)Oc1ccc(C(=O)N2CCC(Cc3ccccc3)CC2)c(OC(=O)N(C)C)c1` [Compound 5a, 4-(4-Benzylpiperidine-1-carbonyl)-1,3-phenylene bis(dimethylcarbamate)], the IC50 stood at 7.8 ± 0.36 µM in [1] and 0.53 ± 0.01 µM in data set [2]. In data set [2], this compound displayed an SI of 14.7. In addition, in data set [3] (0.1 × IC50, at 120 min, Figure 2(B)), the BuChE activity recovered was found to be 63.9%. The “BChE activity (% control)” value in data set [3] (1*IC50, Figure 2(A)) is recorded as 48.6 % control; in data set [3] (diluted to 0.1*IC50, Figure 2(A)) it was 46.7 % control. In [3] (after dilution to 0.1 × IC50, text on Figure 2(A)), the eqBuChE activity restored result is given as “no significant recovery”. In addition, in data set [3] (from recovery after dilution), the “Type of inhibition (reversibility)” value is listed as “pseudo-irreversible”. Moreover, in data set [4], the “Cytotoxicity on BV-2 cells” value was “did not produce significant cytotoxicity”. The entries for the “Level of IL-6” value in [5] (5a 3 μM) and in data set [5] (5a 9 μM) were 505.3 pg/mL and 971.1 pg/mL, respectively. Besides, the “Level of IL-1β” value in [6] (5a 1 μM, LPS 1 μg/mL (model 302.7 pg/mL)) is reported as 67.2 pg/mL; in [6] (5a 3 μM, LPS 1 μg/mL) it was 90.9 pg/mL; in data set [6] (5a 9 μM, LPS 1 μg/mL) it was 163.4 pg/mL. In addition, the “Release volume of NO” value in [7] is reported as “remarkably declined”. Moreover, the “Cytotoxicity on PC12 cells” value in data set [8] is reported as “no obvious cytotoxicity”. Further, the Residual amount in [9] (after 8 h incubation in artificial gastric juice) is reported as 95.6%; in data set [9] (after 8 h incubation in artificial intestinal juice), 110.6%; in data set [9] (after 8 h incubation in blank gastric juice), 99.5%; in data set [9] (after 8 h incubation in blank intestinal juice) it was 97.5%. The half-life at 10 μg/mL is 0.32 h in data set [10] and 3.25 h in data set [11]. In addition, the Step-down latency in data set [12] (5a 1.23 mg/kg, scopolamine 2.0 mg/kg) is reported as 140.1 s; in data set [12] (5a 2.45 mg/kg, scopolamine 2.0 mg/kg) it was 77.8 s; in data set [12] (5a […], scopolamine 2.0 mg/kg), 105.2 s. Moreover, the viability at 1 µM in data set [13] came out at 61.7%. For the same compound, in data set [13], the viability at 3 µM is 68.6%. The viability at 9 µM in data set [13] is 83.3%. Besides, in data set [14], the “Abnormal behaviour (safety profile)” value is “did not present abnormal behaviour”.
On to `CCN(C)C(=O)Oc1ccc(C(=O)N2CCC(Cc3ccccc3)CC2)c(OC(=O)N(C)CC)c1` [Compound 5b, 4-(4-Benzylpiperidine-1-carbonyl)-1,3-phenylene bis(ethyl(methyl)carbamate)], for which 6.3 ± 0.41 µM corresponded to half-maximal inhibition in data set [1] (IC50). In [2], inhibition was half-maximal at 2.6 ± 1.8 µM (IC50) and the SI was determined as 2.4.
With `CC(C)N(C(=O)Oc1ccc(C(=O)N2CCC(Cc3ccccc3)CC2)c(OC(=O)N(C(C)C)C(C)C)c1)C(C)C` [Compound 5c, 4-(4-Benzylpiperidine-1-carbonyl)-1,3-phenylene bis(diisopropylcarbamate)], the half-maximal inhibitory concentration (IC50) in [1] (setting [16]) was 7.1 ± 0.23 µM; in data set [2] (setting [17]), 10.8 ± 0.56 µM. Also, the SI in data set [2] came out at 0.66.
The matching figures for `O=C(Oc1ccc(C(=O)N2CCC(Cc3ccccc3)CC2)c(OC(=O)N2CCCC2)c1)N1CCCC1` [Compound 5d, 4-(4-Benzylpiperidine-1-carbonyl)-1,3-phenylene bis(pyrrolidine-1-carboxylate)]: 22.3 ± 1.8 µM, 8.7 ± 0.93 µM and 2.6.
As for `O=C(Oc1ccc(C(=O)N2CCC(Cc3ccccc3)CC2)c(OC(=O)N2CCOCC2)c1)N1CCOCC1` [Compound 5e, 4-(4-Benzylpiperidine-1-carbonyl)-1,3-phenylene bis(morpholine-4-carboxylate)], the IC50 in data set [1] (setting [16]) amounted to 18.3 ± 0.87 µM; in [2] (setting [17]), 13.1 ± 0.72 µM. In data set [2], this compound showed an SI of 1.4.
Take `CN(C)C(=O)Oc1ccc(OC(=O)N(C)C)c(C(=O)N2CCC(Cc3ccccc3)CC2)c1` [Compound 5f, 2-(4-Benzylpiperidine-1-carbonyl)-1,4-phenylene bis(dimethylcarbamate)]: the IC50 in data set [1] is 5.2 ± 0.35 µM. In data set [2], this compound displayed a half-inhibitory concentration (IC50) of 16.3 ± 0.86 µM and an SI of 0.32.
In data set [1], `CCN(C)C(=O)Oc1ccc(OC(=O)N(C)CC)c(C(=O)N2CCC(Cc3ccccc3)CC2)c1` [Compound 5g, 2-(4-Benzylpiperidine-1-carbonyl)-1,4-phenylene bis(ethyl(methyl)carbamate)] showed an IC50 of 4.9 ± 0.68 µM. For the same compound, in [2], half-maximal inhibition (IC50) was put at 13.5 ± 0.52 µM and the SI came to 0.36.
Consider `CC(C)N(C(=O)Oc1ccc(OC(=O)N(C(C)C)C(C)C)c(C(=O)N2CCC(Cc3ccccc3)CC2)c1)C(C)C` [Compound 5h, 2-(4-Benzylpiperidine-1-carbonyl)-1,4-phenylene bis(diisopropylcarbamate)], for which the IC50 in data set [1] (setting [16]) came to 8.2 ± 0.67 µM; in [2] (setting [17]), 16.7 ± 1.2 µM. Moreover, the SI in data set [2] is given as 0.49.
`COc1cc2c(cc1OC)C(=O)C(CC1CCN(Cc3ccccc3)CC1)C2` (stereo not drawn) [Donepezil, donepezil, reference compound] gave a Step-down latency in [12] (donepezil 2.0 mg/kg, scopolamine 2.0 mg/kg (model 42.1 s)) of 144.3 s.
Regarding `CCN(C)C(=O)Oc1cccc([C@H](C)N(C)C)c1` [Rivastigmine, rivastigmine, reference compound], in data set [3], the “BChE activity (% control)” value was 53.2 % control and 49.8 % control; the BuChE activity recovered is on record as 68.7%; the “Type of inhibition (reversibility)” value is on record as “pseudo-irreversible”; the eqBuChE activity restored entry is reported as “no significant recovery”.
In the case of `O=C(O)c1ccccc1O` [SA, Salicylic acid], the half-maximal inhibitory concentration (IC50) in data set [15] is 346 µM.

For orientation: inhibition means the percentage by which the read-out fell short of the control. Usually IC50 stands for the concentration that inhibits the measured activity by half. The term viability denotes a per cent measure of how many cells are alive, often set against a control.

The record behind these values is publication PMC10327518 (Journal of Enzyme Inhibition and Medicinal Chemistry, 2023).
